This is an account of results in patent US8470867B2, “Sigma receptor inhibitors” (Laboratorios Del Dr. Esteve, S.A., priority 2004, dated 2013).

Structures can show the parent of a compound that is named as a salt.

Tested on in one data set: not given
Experiment: not given
Conditions: not given
The melting point is the temperature, or range, at which the solid turns liquid. In the case of `Cc1cc(OCCN2CCC(n3cnc4cccnc43)CC2)nn1-c1ccc(Cl)c(Cl)c1` [Example 7, 3-{1-[2-(1-(3,4-Dichlorophenyl)-5-methyl-1H-pyrazol-3-yloxy)ethyl]piperidin-4-yl}-3H-imidazo[4,5-b]pyridine], the melting point lay within 104 to 107 °C.

In turn, `Clc1ccc(-n2ccc(OCCCCN3CCSCC3)n2)cc1Cl.O=C(O)C(=O)O` yielded a melting point of 175 to 177 °C. `COc1ccc(-n2nc(OCCN3CCOCC3)cc2C)cc1.Cl` gave a melting point of 169 to 173 °C. The compound `Cl.Clc1ccc(-n2nc(OCCN3CCc4ccccc4C3)cc2-c2ccccc2)cc1Cl` [Example 21, 2-{2-[1-(3,4-Dichlorophenyl)-5-phenyl-1H-pyrazol-3-yloxy]ethyl}-1,2,3,4-tetrahydroisoquinoline hydrochloride] displayed a melting point of 185 to 189 °C. `Cl.Clc1ccc(-n2nc(OCCN3CCOCC3)cc2-c2ccccc2)cc1Cl` [Example 16, 4-{2-[1-(3,4-Dichlorophenyl)-5-phenyl-1H-pyrazol-3-yloxy]ethyl}morpholine hydrochloride] registered a melting point of 197 to 207 °C. `C[C@@H]1CN(CCCCOc2ccn(-c3ccc(Cl)c(Cl)c3)n2)C[C@H](C)O1.Cl` showed a melting point of 149 to 154 °C. Regarding `Cl.Clc1ccc(-n2ccc(OCCCCN3CCCC3)n2)cc1Cl`, the melting point is 181 to 186 °C. In turn, `CC(=O)c1c(OCCN2CCOCC2)nn(-c2ccc(Cl)c(Cl)c2)c1C.O=C(O)C(=O)O` came in with a melting point of 188 to 192 °C.

Compound `CCN(CC)CCOc1nn(-c2ccc(Cl)c(Cl)c2)c(C)c1C.Cl` had a melting point of 134 to 136 °C. On the same count and under the same terms, as for `Clc1ccc(-n2ccc(OCCN3CCOCC3)n2)cc1Cl` (as salt: hydrochloride) [Example 37, 4-{2-[1-(3,4-dichlorophenyl)-1H-pyrazol-3-yloxy]ethyl}morpholine], the figure is 162 to 166 °C; as for `Cc1cc(OCCn2ccnc2)nn1-c1ccc(Cl)c(Cl)c1` [Example 6, 1-{2-[1-(3,4-dichlorophenyl)-5-methyl-1H-pyrazol-3-yloxy]ethyl}-1H-imidazole], 111 to 112 °C; as for `Cl.Clc1ccc(-n2ccc(OCCCCN3CCCCC3)n2)cc1Cl`, 156 to 161 °C. `CCN(CC)CCOc1nn(-c2ccc(Cl)c(Cl)c2)c(C)c1C(C)=O.O=C(O)C(=O)O` displayed a melting point of 147 to 149 °C.

`Clc1ccc(-n2ccc(OCCN3CCCC3)n2)cc1Cl` (as salt: hydrochloride) [Example 39, 1-(3,4-dichlorophenyl)-3-[2-(pyrrolidin-1-yl)ethoxy]-1H-pyrazole] showed a melting point of 172 to 176 °C. The compound `Cl.Clc1ccc(-n2nc(OCCn3ccnc3)cc2-c2ccccc2)cc1Cl` had a melting point of 147 to 155 °C. Still for that read-out and setting: as for `COCCN(C)CCCCOc1ccn(-c2ccc(Cl)c(Cl)c2)n1.O=C(O)C(=O)O`, the figure is 97 to 100 °C; as for `CC(=O)c1c(OCCN2CCCCC2)nn(-c2ccc(Cl)c(Cl)c2)c1C.O=C(O)C(=O)O`, 158 to 161 °C; as for `Cl.Clc1ccc(-n2ccc(OCCCCN3CCOCC3)n2)cc1Cl`, 165 to 169 °C.

`Cc1c(OCCN2CCCC2)nn(-c2ccc(Cl)c(Cl)c2)c1C.Cl` gave a melting point of 146 to 148 °C. On to `Cc1c(OCCCN2CCCC2)nn(-c2ccc(Cl)c(Cl)c2)c1C.Cl`, for which the melting point lay in the range of 155 to 157 °C.

On to `Clc1ccc(-n2ccc(OCCN3CCCCC3)n2)cc1Cl` (as salt: hydrochloride) [Example 40, 1-{2-[1-(3,4-dichlorophenyl)-1H-pyrazol-3-yloxy]ethyl}piperidine], for which the melting point fell in the range of 172 to 177 °C. In turn, `Cc1c(OCCN2CCCCC2)nn(-c2ccc(Cl)c(Cl)c2)c1C` [Example 48, 1-(2-(1-(3,4-Dichlorophenyl)-4,5-dimethyl-1H-pyrazol-3-yloxy)ethyl)piperidine] displayed a melting point of 64 to 67 °C.

Turning to `CC(=O)c1c(OCCN2CCCC2)nn(-c2ccc(Cl)c(Cl)c2)c1C.O=C(O)C(=O)O`, the melting point was 159 to 162 °C.

As for `CCN(CC)CCCCOc1ccn(-c2ccc(Cl)c(Cl)c2)n1.O=C(O)C(=O)O`, the melting point lay within 130 to 135 °C. Compound `Clc1ccc(-n2ccc(OCCCN3CCCC3)n2)cc1Cl` (as salt: hydrochloride) [Example 41, 1-(3,4-dichlorophenyl)-3-[3-(pyrrolidin-1-yl)propoxy]-1H-pyrazole] displayed a melting point of 156 to 159 °C.

In a further data set the target is T1, σ1-receptor (Cavia porcellus, UniProt Q60492).
T1 construct: guinea pig brains were homogenized; from tissue; host or cells: guinea pig brain membranes
T1 sequence (Q60492 whole entry): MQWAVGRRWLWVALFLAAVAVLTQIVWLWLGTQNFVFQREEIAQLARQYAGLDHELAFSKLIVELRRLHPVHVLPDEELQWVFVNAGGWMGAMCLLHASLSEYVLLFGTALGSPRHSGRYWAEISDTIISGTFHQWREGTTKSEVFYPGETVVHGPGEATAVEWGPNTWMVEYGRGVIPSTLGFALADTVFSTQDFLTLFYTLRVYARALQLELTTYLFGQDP
Nature of the data set: Sigma-1 receptor binding, [3H](+)-pentazocine, brain membranes. The arrangement: species or system guinea pig.
Conditions: not given
Here is the method: Brain membrane preparation and binding assays for the σ1-receptor were performed as described (DeHaven-Hudkins et al., 1992) with some modifications. In brief, guinea pig brains were homogenized in 10 vols. (w/v) of Tris-HCl 50 mM 0.32 M sucrose, pH 7.4, with a Kinematica Polytron PT 3000 at 15000 r.p.m. for 30 s. The homogenate was centrifuged at 1000 g for […] at 4° C. and the supernatants collected and centrifuged again at 48000 g for 15 min at 4° C. The pellet was resuspended in 10 volumes of Tris-HCl buffer (50 mM, pH 7.4), incubated at 37° C. for 30 min, and centrifuged at 48000 g for 20 min at 4° C. Following this, the pellet was resuspended in fresh Tris-HCl buffer (50 mM, pH 7.4) and stored on ice until use.
Each assay tube contained 10 μL of [^3H](+)-pentazocine (final concentration of 0.5 nM), 900 μL of the tissue suspension to a final assay volume of 1 mL and a final tissue concentration of approximately 30 mg tissue net weight/mL. […] All tubes were incubated at 37° C. for 150 min before termination of the reaction by rapid filtration over Schleicher & Schuell GF 3362 glass fibre filters [previously soaked in a solution of 0.5% polyethylenimine for at least 1 h]. Filters were then washed with four times with 4 mL of cold Tris-HCl buffer (50 mM, pH 7.4). Following addition of scintillation cocktail, the samples were allowed to equilibrate overnight. The amount of bound radioactivity was determined by liquid scintillation spectrometry using a Wallac Winspectral 1414 liquid scintillation counter. Protein concentrations were determined by the method of Lowry et al. (1951).
For orientation: Ki means the equilibrium dissociation constant of an inhibitor or competing ligand from its target. A low value points to tighter binding. `CC(C)c1cc(OCCN2CCCCC2)nn1-c1ccc(Cl)c(Cl)c1` [Example 35, 1-{2-[1-(3,4-Dichlorophenyl)-5-isopropyl-4H-pyrazol-3-yloxy]ethyl}piperidine] returned an inhibition constant Ki of 8.6 nM.

`Cc1cc(OCCCCN2CCCC2)nn1-c1ccc(Cl)c(Cl)c1` [Example 23, 1-(3,4-Dichlorophenyl)-5-methyl-3-[4-(pyrrolidin-1-yl)butoxy]-1H-pyrazole] returned a Ki of 4.4 nM. Regarding `CCN(CC)CCCCOc1cc(C)n(-c2ccc(Cl)c(Cl)c2)n1` [Example 27, 4-[1-(3,4-Dichlorophenyl)-5-methyl-1H-pyrazol-3-yloxy]-N,N-diethylbutan-1-amine], the Ki was 4.1 nM.

The same data set, now with this note: 10^−7 M.
For orientation: inhibition means the change of the read-out against control, counted positive when it falls. `Cc1cc(OCCN2CCC(n3cnc4cccnc43)CC2)nn1-c1ccc(Cl)c(Cl)c1` [Example 7, 3-{1-[2-(1-(3,4-Dichlorophenyl)-5-methyl-1H-pyrazol-3-yloxy)ethyl]piperidin-4-yl}-3H-imidazo[4,5-b]pyridine]: the inhibition at 0.1 µM amounted to 94.4%. In the case of `Clc1ccc(-n2nc(OCCN3CCCCC3)cc2-c2ccccc2)cc1Cl` [Example 19, 1-{2-[1-(3,4-Dichlorophenyl)-5-phenyl-1H-pyrazol-3-yloxy]ethyl}piperidine], the inhibition at 0.1 µM came to 80.1%. Regarding `COc1ccc(-n2nc(OCCN3CCCCC3)cc2C)cc1` [Example 14, 1-[2-(1-(4-Methoxyphenyl)-5-methyl-1H-pyrazol-3-yloxy)ethyl]piperidine], the inhibition at 0.1 µM came to 48.9%. Still for that read-out and setting: as for `CCN(CC)CCOc1cc(C)n(-c2ccc3ccccc3c2)n1` [Example 62, N,N-Diethyl-2-[5-methyl-1-(naphthalen-2-yl)-1H-pyrazol-3-yloxy]ethanamine], the figure is 69.2%; as for `Cl.Clc1ccc(-n2nc(OCCN3CCc4ccccc4C3)cc2-c2ccccc2)cc1Cl` [Example 21, 2-{2-[1-(3,4-Dichlorophenyl)-5-phenyl-1H-pyrazol-3-yloxy]ethyl}-1,2,3,4-tetrahydroisoquinoline hydrochloride], 45.5%. Regarding `Cl.Clc1ccc(-n2nc(OCCN3CCOCC3)cc2-c2ccccc2)cc1Cl` [Example 16, 4-{2-[1-(3,4-Dichlorophenyl)-5-phenyl-1H-pyrazol-3-yloxy]ethyl}morpholine hydrochloride], the inhibition at 0.1 µM was 46.5%. On to `Cc1cc(OCCCCN2CCc3ccccc3C2)nn1-c1ccc(Cl)c(Cl)c1` [Example 30, 2-{4-[1-(3,4-dichlorophenyl)-5-methyl-1H-pyrazol-3-yloxy]butyl}-1,2,3,4-tetrahydroisoquinoline], for which the inhibition at 0.1 µM turned out to be 83%. Regarding `CC(C)c1cc(OCCN2CCCCC2)nn1-c1ccc(Cl)c(Cl)c1` [Example 35, 1-{2-[1-(3,4-Dichlorophenyl)-5-isopropyl-4H-pyrazol-3-yloxy]ethyl}piperidine], the inhibition at 0.1 µM was determined as 102%. For the compound `CCN(CC)CCOc1cc(C(C)C)n(-c2ccc(Cl)c(Cl)c2)n1` [Example 32, 2-[1-(3,4-Dichlorophenyl)-5-isopropyl-1H-pyrazol-3-yloxy]-N,N-diethylethanamine], the inhibition at 0.1 µM worked out at 72.7%. Take `Cc1cc(OCCCCN2CCCC2)nn1-c1ccc(Cl)c(Cl)c1` [Example 23, 1-(3,4-Dichlorophenyl)-5-methyl-3-[4-(pyrrolidin-1-yl)butoxy]-1H-pyrazole]: the inhibition at 0.1 µM worked out at 96.4%.

As to `CCN(CC)CCCCOc1cc(C)n(-c2ccc(Cl)c(Cl)c2)n1` [Example 27, 4-[1-(3,4-Dichlorophenyl)-5-methyl-1H-pyrazol-3-yloxy]-N,N-diethylbutan-1-amine], the inhibition at 0.1 µM is 99.2%.

For the compound `Clc1ccc(-n2ccc(OCCN3CCOCC3)n2)cc1Cl` [Example 37, 4-{2-[1-(3,4-dichlorophenyl)-1H-pyrazol-3-yloxy]ethyl}morpholine], the inhibition at 0.1 µM worked out at 108%. Still for that read-out and setting: the figure for `CCOC(=O)N1CCN(CCOc2cc(C)n(-c3ccc(Cl)c(Cl)c3)n2)CC1` [Example 9, Ethyl 4-{2-[1-(3,4-dichlorophenyl)-5-methyl-1H-pyrazol-3-yloxy]ethyl}piperazine carboxylate] is 99.5%; for `CCN(CC)CCOc1cc(C)n(-c2ccc(Cl)c(Cl)c2)n1` [Example 2, 2-[1-(3,4-Dichlorophenyl)-5-methyl-1H-pyrazol-3-yloxy]-N,N-diethylethanamine hydrochloride] it is 95.1%; for `Clc1ccc(-n2nc(OCCCN3CCCC3)cc2-c2ccccc2)cc1Cl` [Example 18, 1-(3,4-Dichlorophenyl)-5-phenyl-3-[3-(pyrrolidin-1-yl)propoxy]-1H-pyrazole] it is 58.6%. On the same count and under the same terms, the figure for `Cc1cc(OCCN2CCN(C)CC2)nn1-c1ccc(Cl)c(Cl)c1` [Example 8, 1-{2-[1-(3,4-Dichlorophenyl)-5-methyl-1H-pyrazol-3-yloxy]ethyl}-4-methylpiperazine] is 94.5%. For `Cc1cc(OCCN2CCOCC2)nn1-c1ccc2ccccc2c1` [Example 61, 4-{2-[5-Methyl-1-(naphthalen-2-yl)-1H-pyrazol-3-yloxy]ethyl}morpholine], the “% Binding σ1” value was determined as 93.6%.

As for `CCN(CC)CCOc1ccn(-c2ccc(Cl)c(Cl)c2)n1` [Example 38, 2-[1-(3,4-dichlorophenyl)-1H-pyrazol-3-yloxy]N,N-diethylethanamine], the inhibition at 0.1 µM amounted to 108%.

With `Clc1ccc(-n2ccc(OCCN3CCCC3)n2)cc1Cl` [Example 39, 1-(3,4-dichlorophenyl)-3-[2-(pyrrolidin-1-yl)ethoxy]-1H-pyrazole], the inhibition at 0.1 µM was determined as 110%. On the same count and under the same terms, the figure for `Clc1ccc(-n2ccc(OCCN3CCCCC3)n2)cc1Cl` [Example 40, 1-{2-[1-(3,4-dichlorophenyl)-1H-pyrazol-3-yloxy]ethyl}piperidine] is 110%; for `COc1ccc(-n2nc(OCCCN3CCCC3)cc2C)cc1` [Example 13, 1-(4-Methoxyphenyl)-5-methyl-3-[3-(pyrrolidin-1-yl)propoxy]-1H-pyrazole] it is 50.9%.
